We go through one compound from patent publication US8404752B2, “Method of treating traumatic brain injury” (Oxygen Biotherapeutics, Inc., priority 2008, dated 2013).

This data set can be described thus: Physical properties and gas carrying capacity of perfluoro-tert-butylcyclohexane. Format: physicochemical.

Take `FC(F)(F)C(C(F)(F)F)(C(F)(F)F)C1(F)C(F)(F)C(F)(F)C(F)(F)C(F)(F)C1(F)F` [perfluoro-tert-butylcyclohexane]: the CO2 carried is given as 196 ml of CO2 per 100 ml of PFC, the lipophilicity result is on record as “non-lipophilic”, the oxygen carried entry is “about 43 mL of oxygen per 100 ml of PFC” and the water solubility entry is on record as “non-water soluble”. Where the note is “@ 25° C.”, the “Vapor Pressure” value came to 3.8 mmHg. Also, where the note is “@ 37° C.”, the “Vapor Pressure” value amounted to 4.4 mmHg.
